US9422235B2, “Sulfonamide derivatives with therapeutic indications” (Pharmos Corporation, priority 2006, dated 2016)
Where two headings read alike, the source gives them in different places.

Tests used:
female BALB/c mice = test: Dextran Sulfate Salt (DSS)-induced acute colitis; format: in vivo, mouse; details: for % Survival / Clinical score / Percentage change in body weight: i.p.
Source text: In order to test the activity of compounds of the invention in an animal model of inflammatory bowel disease, female BALB/c mice 9-12 week old (Harlan, Israel) were used for Dextran Sulfate Salt (DSS)-induced acute colitis studies. Mice (ten per treatment group) were provided with a solution of tap water containing 5% DSS (MW. 36000-50000; MP Biomedicals, LLC) ad libitum over an 8 day period. The DSS solution was replenished every other day and switched to tap water at day 8. Body weight was measured daily. The clinical scores combined both macroscopic (diarrhea, body weight, mortality) as well as microscopic (pathological) scores. Diarrhea score in the studies for each animal represented the daily summary of stool consistency (scored as: 0, normal; 1, soft but still formed; 2, very soft; 3, diarrhea) and the presence of blood in stool (scored: 0, None; 1, visible blood traces in stool; 2, signs of blood; 3, rectal bleeding). At the end of experiment animals were euthanized and their colons are examined for signs of pathological damage. The pathological scores, colon length and weight were determined from the cecum to the anus (scored: 0, normal; 1, slight inflammation; 2, moderate inflammation and/or edema; 3, heavy inflammation and/or ulceration and/or edema).
Two compounds were tested in DSS-induced colitis in mice, compounds 4 and 58. […] Results are expressed as mean ± SEM for each treatment group and the differences among those groups are analyzed by T-test. Two crosshatches indicate a p value below 0.01 and three indicate a p value below 0.001. Asterisks denote statistical significant weight loss relative to animal weight in the beginning of the experiment.
Alternatively, compound 58 (30 mg/kg) was administered orally from the first day of DSS administration (day 1) until the end of the experiment (day 10).

Male Sprague Dawley rats [1] = test: CFA-induced acute inflammatory pain, mechanical stimulus (Dynamic Plantar Aesthesiometer); format: in vivo, rat; details: three hours post administration
Experimental: Acute Inflammatory Pain. The purpose of this study is to test the analgesic activity of the compounds in inflammatory pain. Inflammatory pain is nociceptive in nature, wherein the pain sensation is often perceived for longer period than in acute pain. In the present model the duration of the preventive activity of compounds against inflammatory acute pain was assessed for up to about three hours post-drug administration. Inflammatory pain and paw edema were induced by intraplantar injection of 50% Complete Freund's Adjuvant (CFA) suspension in the animal hind paw. […]
Prior to, 24 hours post induction of inflammatory pain and one and three hours after drug administration, the animals reactions to pain stimuli were tested by mechanical stimulus. The mechanical (tactile) analgesia was assessed using a Dynamic Plantar Aesthesiomether (Ugo Basile Model 73400-002). […]
The results are presented as the force needed for hind paw withdrawal before surgery, 24 hours post surgery and 1 and 3 hours post drug administration. Results are expressed as mean±SEM for each treatment group and the differences among those groups are analyzed by analysis of variance (ANOVA). […]
The baseline values for the force to be applied for left hind paw withdrawal following mechanical stimuli is about 30 gram before inflammatory pain induction. […] Results, expressed as Force measured in grams, are depicted in FIG. 3.

Male Sprague Dawley rats [2] = test: Chronic constriction induced (CCI) model of neuropathic pain, mechanical hyperalgesia; format: in vivo, rat; details: 10 mg/kg, s.i.d, 14 days
Experimental: The analgesic activity of compounds of the invention is assessed in a chronic constriction induced (CCI) model of neuropathic pain. A peripheral neuropathy is induced in the left hind limb of rats following a chronic constriction of the sciatic nerve according to Bennet et al. (Bennet, G. J. & Xie, Y-K., Pain 33: 87-107, 1988). The development of mechanical hyperalgesia is monitored using an established behavioral test analgesy meter or dynamic planter aesthesiometer.
Pre-surgery baseline values are ascertained as the mean of 2 pre-surgery values. Once the baseline values are established, the animals are surgically prepared by constricting the left sciatic nerve with 4-0 chromic catgut loose ligatures. […]
The design is randomized, performed in a masked fashion as to whether drug or vehicle is being given. […] On the testing day, 24 hours after administration period lapsed, the differences between ipsilateral and contralateral hind leg thresholds were measured in grams using the Dynamic planter aesthesiometer or analgesy meter (Ugo basile).
Results are expressed as mean±SEM for each treatment group and the differences among those groups are analyzed by analysis of variance (ANOVA) followed by post-hoc analysis using Tukey's test. […]

human CB2 receptor = human CB2 receptor (Homo sapiens (Human), UniProt P34972); test: [35S]GTPγS-binding assay, functional activity at the human CB2 receptor; format: biochemical; details: Cell line C2-4
human CB2 receptor, sequence (P34972 whole entry): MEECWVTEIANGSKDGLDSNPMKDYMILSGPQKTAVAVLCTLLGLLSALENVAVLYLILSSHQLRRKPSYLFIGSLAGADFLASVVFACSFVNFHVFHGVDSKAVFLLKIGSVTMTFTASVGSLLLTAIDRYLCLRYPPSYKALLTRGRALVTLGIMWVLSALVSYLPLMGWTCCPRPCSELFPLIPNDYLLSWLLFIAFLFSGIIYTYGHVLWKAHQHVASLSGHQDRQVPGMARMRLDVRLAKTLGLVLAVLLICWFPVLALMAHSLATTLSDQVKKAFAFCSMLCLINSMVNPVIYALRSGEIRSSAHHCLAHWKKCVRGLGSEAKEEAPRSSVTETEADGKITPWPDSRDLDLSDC
Experimental: Functional activity of compounds of the invention toward the cannabinoid receptors was determined by stimulation of [^35S]-GTPγS binding using membranes from HEK-293 cells expressing the hCB1 receptor and membranes expressing the hCB2 receptor derived from either Sf9 (PerkinElmer) or from HEK-293 cells. Activities were compared to that of the known cannabinoid full agonist CP55940 (Alexis). The purpose of this experiment is to determine the potency of the compounds of the invention as agonists or antagonists toward each of the receptor tested.
[^35]-GTPγS binding reactions were performed at 30° C. in 96-well plates containing 5-10 μg membrane protein suspended in 0.1 ml binding buffer (20 mM HEPES-NaOH, pH 7.4, 5 mM MgCl2, 100 mM NaCt, 0.2% (w/v) bovine serum albumin) supplemented with 50 μM GDP and 0.06 nM-10 μM of the compound being tested. Binding was initiated by the addition of [^35S]GTPγS (0.3 nM final concentration). Incubations were performed for 90 minutes and were terminated by filtration on GF/C filter plates (PerkinElmer). Filters were washed ten times with ice-cold wash buffer (20 mM HEPES-NaOH, pH 7.4, 10 mM sodium pyrophosphate). Non-specific binding was measured in the presence of 15 μM GTPγS.
Assays were performed in duplicates. Data was analyzed by plotting on the X axis the log concentration against percent of specific [^35S]GTPγS binding out of basal [^35S]GTPγS binding on the Y axis, non-linear regression is then performed using GraphPad Prism, version 3.0 (GraphPad, San Diego, Calif.) to calculate the EC50 and Emax of the compound. The EC50 value represents the concentration at which there is 50% [^35S]GTPγS binding and the Emax value the upper plateau of the curve.
CP55940 is a full agonist of the human and rat CB2 receptors. […] Full or partial agonism at the receptor was determined relative to the Emax value of CP55940.

## COc1cc(Nc2ccc(S(=O)(=O)NCC3CC3)c(C(F)(F)F)c2)cc(OC)c1 [Compound 4, N-Cyclopropylmethyl-4-(3,5-dimethoxy-phenylamino)-2-trifluoromethyl-benzenesulfonamide]
Female BALB/c mice; 20 mg/kg
  % Survival: 90%
  Clinical score: 3.4 ± 0.7
  Percentage change in body weight: −9.6 ± 1.59 %
Female BALB/c mice; 40 mg/kg
  % Survival: 100%
  Clinical score: 3.1 ± 0.6
  Percentage change in body weight: −5 ± 2.3 %
Female BALB/c mice; administered intraperitoneally
  efficacy in DSS-induced colitis (weight loss, clinical signs or gross pathology): modest efficacy
Male Sprague Dawley rats [1]; 10 mg/kg i.p.
  reversal of pain threshold of injured paw: 50%
Male Sprague Dawley rats [1]; 30 mg/kg i.p.
  reversal of pain threshold of injured paw: 100%
Male Sprague Dawley rats [2]
  reduction of the CCI induced hyperalgesia: significant reduction
Human CB2 receptor; Emax of compound divided by Emax of CP55940, read-out: % Activity (relative to CP55,940)
  Emax: 51%
Human CB2 receptor; upper plateau of [35S]GTPγS binding curve, read-out: Emax (%)
  Emax: 26%
